In PMC11999280, “Design and screening of novel endosomal escape compounds that enhance functional delivery of oligonucleotides in vitro” (Molecular Therapy. Nucleic Acids, 2025):

Tests used:
Assay type in all cases: cell-based
[1] = tested on: mCherry-GAL9 expressing 16HBE cells; assay: GAL9 recruitment assay, 16HBE; conditions: calculated mean from >3 independent exp.
Method: (§1) Experiments assessing GAL9 localization as an indicator for endosomal remodeling were performed as previously described[15] using 8× stablemCherry-GAL9 expressing cell lines, SHSY5Y, U2OS, 16HBE, NCI-H358, HuH7, HepG2, HEK293, and HeLa. For mCherry-GAL9 recruitment, 3,000 or 6,500 cells/well (depending upon cell line) were seeded into 384-well CellCarrier Ultra plates 24 h prior to treatment (PerkinElmer, catalog no. 6007558). An Echo 655T acoustic dispenser (Labcyte) was used for EEE dose-response preparation by transferring to the cell plate. At assay endpoints, cells were PBS washed, 4% paraformaldehyde fixed at room temperature […] (VWR, catalog no. 9713.1000), and nuclei stained with PBS +1 μg/mL Hoechst 33342 (Thermo Fisher Scientific, catalog no. H21492).
(§2) Imaging was performed using a spinning-disk confocal microscope (Yokogawa: CV8000) with a ×20w objective (numerical aperture 1.0). Cells and mCherry-GAL9 structure identification and quantification were done using Columbus image-analysis software (PerkinElmer version 2.9.0). Data processing was done using Spotfire (Tibco version 11.4) and Prism (GraphPad version 9.1.0). Image panels were assembled using the FigureJ plugin for FIJI.[43] All mCherry-GAL9 experiments were performed three times (N = 3) with duplicated wells per treatment (n = 2).

[2] = tested on: mCherry-GAL9 expressing HEK293 cells; assay: GAL9 recruitment assay, HEK293; conditions: calculated mean from >3 independent exp.
Method: as §1, §2

[3] = tested on: mCherry-GAL9 expressing HeLa cells; assay: GAL9 recruitment assay, HeLa; conditions: calculated mean from >3 independent exp.
Method: as §1, §2

[4] = tested on: mCherry-GAL9 expressing HepG2 cells; assay: GAL9 recruitment assay, HepG2; conditions: calculated mean from >3 independent exp.
Method: as §1, §2

[5] = tested on: mCherry-GAL9 expressing HuH7 cells; assay: GAL9 recruitment assay, HuH7; conditions: calculated mean from >3 independent exp.
Method: as §1, §2

[6] = tested on: mCherry-GAL9 expressing NCI-H358 cells; assay: GAL9 recruitment assay, NCI-H358; conditions: calculated mean from >3 independent exp.
Method: as §1, §2

[7] = tested on: mCherry-GAL9 expressing SHSY5Y cells; assay: GAL9 recruitment assay, SHSY5Y; conditions: calculated mean from >3 independent exp.
Method: as §1, §2

[8] = tested on: mCherry-GAL9 expressing U2OS cells; assay: GAL9 recruitment assay, U2OS; conditions: calculated mean from >3 independent exp.
Method: as §1, §2

[9] = tested on: HeLa_Luc705 cells (pLuc/705 splice-switching reporter); assay: Functional 705-SSO delivery, luciferase splice-switching assay; conditions: HeLa-Luc705 + 2 µM SSO, mean from >3 independent experiments
From the text: Therefore, next, we functionally screened the SSO delivery in the HeLa_Luc705 reporter cell line. HeLa_Luc705 carries a pLuc/705 splice-switching reporter luciferase gene interrupted by a mutated β-globin intron, which creates a preferentially used cryptic 5′ splice site leading to aberrant splicing. Functional SSO delivery masks the cryptic site, redirecting the splicing machinery to the right splicing site, allowing the measurement of luciferase expression (Figure S1).[25]^,[26]^,[27]^,[28] We used SSO transfection with LF2000 as transfection control and the previously published endosomal escape enhancer CMP05 (here, EEE2) as positive control.[15]
For the assessment of functional SSO therapeutics, a HeLa_Luc705 cell line was grown in DMEM media supplemented with 10% fetal bovine serum (FBS). For most treatments, 10,000 cells/well were seeded in a 96-well plate, 24 h pre-incubated with 1- to 2-μM oligonucleotide, and then treated at the described EEE concentration. At 24 h post-treatment, cells were PBS rinsed and collected for further analysis (treatments and incubation times changed accordingly to the experiment design). Luciferase readout was performed as previously described,[15] using a GloMax 96-well plate microplate luminometer (Promega) immediately after adding 30 μL auto-injected luciferin substrate (Promega Firefly Luciferase Assay System; Thermo Scientific, catalog no. 16174) in a white-walled 96-well plate containing 30 μL 0.1% Triton X-100 (Sigma-Aldrich) cell lysed. Photon exposure time and delay were set to 10 and 2 s after injection. LF2000 was used as the transfection reagent control (Thermo Scientific, catalog no. 11668019). For EEE experiments using 1 or 2 μM SSOs, the control was prepared using lipofection with 100–200 nM SSO; this is to avoid complex induced cell toxicity.
705-SSO was purchased from and synthesized by Integrated DNA Technologies. The 705-SSO sequence was previously published, containing 2′-O-methylated bases and only phosphorothioate-saturated backbone linkages were included.[15] The 705-SSO was high-performance liquid chromatography purified, shipped, and stored in IDTE buffer (10 mM Tris, 0.1 mM EDTA).

COc1nn(C2CCN(C)CC2)cc1Nc1ncc(C(F)(F)F)c(-n2ccc3c(C#N)cccc32)n1 [EEE16]
Gal9 response compared to reference ([1]; EEE 0.31 µM): 0.008 | Gal9 response compared to reference ([1]; EEE 0.62 µM): 0.009 | Gal9 response compared to reference ([1]; EEE 1.25 µM): 0.008 | Gal9 response compared to reference ([1]; EEE 2.5 µM): 0.007 | Gal9 response compared to reference ([1]; EEE 5 µM): 0.011 | Gal9 response compared to reference ([1]; EEE 10 µM): 0.129 | Gal9 response compared to reference ([2]; EEE 0.31 µM): 0.023 | Gal9 response compared to reference ([2]; EEE 0.62 µM): 0.020 | Gal9 response compared to reference ([2]; EEE 1.25 µM): 0.019 | Gal9 response compared to reference ([2]; EEE 2.5 µM): 0.022 | Gal9 response compared to reference ([2]; EEE 5 µM): 0.024 | Gal9 response compared to reference ([2]; EEE 10 µM): 0.121 | Gal9 response compared to reference ([3]; EEE 0.31 µM): 0.004 | Gal9 response compared to reference ([3]; EEE 0.62 µM): 0.004 | Gal9 response compared to reference ([3]; EEE 1.25 µM): 0.003 | Gal9 response compared to reference ([3]; EEE 2.5 µM): 0.004 | Gal9 response compared to reference ([3]; EEE 5 µM): 0.004 | Gal9 response compared to reference ([3]; EEE 10 µM): 0.005 | Gal9 response compared to reference ([4]; EEE 0.31 µM): 0.010 | Gal9 response compared to reference ([4]; EEE 0.62 µM): 0.007 | Gal9 response compared to reference ([4]; EEE 1.25 µM): 0.008 | Gal9 response compared to reference ([4]; EEE 2.5 µM): 0.008 | Gal9 response compared to reference ([4]; EEE 5 µM): 0.009 | Gal9 response compared to reference ([4]; EEE 10 µM): 0.010 | Gal9 response compared to reference ([5]; EEE 0.31 µM): 0.009 | Gal9 response compared to reference ([5]; EEE 0.62 µM): 0.007 | Gal9 response compared to reference ([5]; EEE 1.25 µM): 0.008 | Gal9 response compared to reference ([5]; EEE 2.5 µM): 0.012 | Gal9 response compared to reference ([5]; EEE 5 µM): 0.008 | Gal9 response compared to reference ([5]; EEE 10 µM): 0.022 | Gal9 response compared to reference ([6]; EEE 0.31 µM): 0.014 | Gal9 response compared to reference ([6]; EEE 0.62 µM): 0.017 | Gal9 response compared to reference ([6]; EEE 1.25 µM): 0.014 | Gal9 response compared to reference ([6]; EEE 2.5 µM): 0.018 | Gal9 response compared to reference ([6]; EEE 5 µM): 0.014 | Gal9 response compared to reference ([6]; EEE 10 µM): 0.019 | Gal9 response compared to reference ([7]; EEE 0.31 µM): 0.014 | Gal9 response compared to reference ([7]; EEE 0.62 µM): 0.014 | Gal9 response compared to reference ([7]; EEE 1.25 µM): 0.012 | Gal9 response compared to reference ([7]; EEE 2.5 µM): 0.012 | Gal9 response compared to reference ([7]; EEE 5 µM): 0.012 | Gal9 response compared to reference ([7]; EEE 10 µM): 0.042 | Gal9 response compared to reference ([8]; EEE 0.31 µM): 0.010 | Gal9 response compared to reference ([8]; EEE 0.62 µM): 0.011 | Gal9 response compared to reference ([8]; EEE 1.25 µM): 0.010 | Gal9 response compared to reference ([8]; EEE 2.5 µM): 0.010 | Gal9 response compared to reference ([8]; EEE 5 µM): 0.010 | Gal9 response compared to reference ([8]; EEE 10 µM): 0.024 | Luciferase expression compared to reference ([9]; EEE 2.5 - 3 µM): 0.810

COc1nn(C2CCNCC2)cc1Nc1ncc(C(F)(F)F)c(-c2c[nH]c3ccccc23)n1 [EEE24]
Gal9 response compared to reference ([1]; EEE 0.31 µM): 0.010 | Gal9 response compared to reference ([1]; EEE 0.62 µM): 0.011 | Gal9 response compared to reference ([1]; EEE 1.25 µM): 0.011 | Gal9 response compared to reference ([1]; EEE 2.5 µM): 0.014 | Gal9 response compared to reference ([1]; EEE 5 µM): 0.035 | Gal9 response compared to reference ([1]; EEE 10 µM): 0.335 | Gal9 response compared to reference ([2]; EEE 0.31 µM): 0.024 | Gal9 response compared to reference ([2]; EEE 0.62 µM): 0.019 | Gal9 response compared to reference ([2]; EEE 1.25 µM): 0.014 | Gal9 response compared to reference ([2]; EEE 2.5 µM): 0.017 | Gal9 response compared to reference ([2]; EEE 5 µM): 0.100 | Gal9 response compared to reference ([2]; EEE 10 µM): 0.464 | Gal9 response compared to reference ([3]; EEE 0.31 µM): 0.005 | Gal9 response compared to reference ([3]; EEE 0.62 µM): 0.005 | Gal9 response compared to reference ([3]; EEE 1.25 µM): 0.004 | Gal9 response compared to reference ([3]; EEE 2.5 µM): 0.004 | Gal9 response compared to reference ([3]; EEE 5 µM): 0.008 | Gal9 response compared to reference ([3]; EEE 10 µM): 0.207 | Gal9 response compared to reference ([4]; EEE 0.31 µM): 0.010 | Gal9 response compared to reference ([4]; EEE 0.62 µM): 0.009 | Gal9 response compared to reference ([4]; EEE 1.25 µM): 0.009 | Gal9 response compared to reference ([4]; EEE 2.5 µM): 0.008 | Gal9 response compared to reference ([4]; EEE 5 µM): 0.008 | Gal9 response compared to reference ([4]; EEE 10 µM): 0.104 | Gal9 response compared to reference ([5]; EEE 0.31 µM): 0.010 | Gal9 response compared to reference ([5]; EEE 0.62 µM): 0.010 | Gal9 response compared to reference ([5]; EEE 1.25 µM): 0.011 | Gal9 response compared to reference ([5]; EEE 2.5 µM): 0.016 | Gal9 response compared to reference ([5]; EEE 5 µM): 0.019 | Gal9 response compared to reference ([5]; EEE 10 µM): 0.174 | Gal9 response compared to reference ([6]; EEE 0.31 µM): 0.019 | Gal9 response compared to reference ([6]; EEE 0.62 µM): 0.018 | Gal9 response compared to reference ([6]; EEE 1.25 µM): 0.016 | Gal9 response compared to reference ([6]; EEE 2.5 µM): 0.015 | Gal9 response compared to reference ([6]; EEE 5 µM): 0.021 | Gal9 response compared to reference ([6]; EEE 10 µM): 0.115 | Gal9 response compared to reference ([7]; EEE 0.31 µM): 0.016 | Gal9 response compared to reference ([7]; EEE 0.62 µM): 0.015 | Gal9 response compared to reference ([7]; EEE 1.25 µM): 0.010 | Gal9 response compared to reference ([7]; EEE 2.5 µM): 0.013 | Gal9 response compared to reference ([7]; EEE 5 µM): 0.070 | Gal9 response compared to reference ([7]; EEE 10 µM): 0.703 | Gal9 response compared to reference ([8]; EEE 0.31 µM): 0.014 | Gal9 response compared to reference ([8]; EEE 0.62 µM): 0.015 | Gal9 response compared to reference ([8]; EEE 1.25 µM): 0.014 | Gal9 response compared to reference ([8]; EEE 2.5 µM): 0.015 | Gal9 response compared to reference ([8]; EEE 5 µM): 0.026 | Gal9 response compared to reference ([8]; EEE 10 µM): 0.166 | Luciferase expression compared to reference ([9]; EEE 5 µM): 7.300 | Luciferase expression compared to reference ([9]; EEE 1-1.25 µM): 0.741 | Luciferase expression compared to reference ([9]; EEE 2.5 - 3 µM): 1.920
